In general, IC50 refers to the concentration needed to halve the response being measured. A lower IC50 goes with greater potency in that assay. As usually defined, the Cmax is the peak of the concentration-time curve. Usually bioavailability stands for dose-corrected exposure relative to a reference, in per cent. For orientation: half-life means the time needed for the level to fall by half in the phase considered. Lower therefore signals rapid decline.

These results are taken from ChEMBL document CHEMBL1140494, “Imidazopiperidine amides as dipeptidyl peptidase IV inhibitors for the treatment of diabetes” (Bioorg Med Chem Lett, 2007).

The target of one data set is Dipeptidyl peptidase 2 (Homo sapiens, UniProt Q9UHL4). As to the kind of experiment: Inhibition of QPP.
The target of the next data set is Dipeptidyl peptidase 9 (Homo sapiens, UniProt Q86TI2). The data set can be described thus: Inhibition of DPP9.
Chain of Dipeptidyl peptidase 9 (Q86TI2 whole entry): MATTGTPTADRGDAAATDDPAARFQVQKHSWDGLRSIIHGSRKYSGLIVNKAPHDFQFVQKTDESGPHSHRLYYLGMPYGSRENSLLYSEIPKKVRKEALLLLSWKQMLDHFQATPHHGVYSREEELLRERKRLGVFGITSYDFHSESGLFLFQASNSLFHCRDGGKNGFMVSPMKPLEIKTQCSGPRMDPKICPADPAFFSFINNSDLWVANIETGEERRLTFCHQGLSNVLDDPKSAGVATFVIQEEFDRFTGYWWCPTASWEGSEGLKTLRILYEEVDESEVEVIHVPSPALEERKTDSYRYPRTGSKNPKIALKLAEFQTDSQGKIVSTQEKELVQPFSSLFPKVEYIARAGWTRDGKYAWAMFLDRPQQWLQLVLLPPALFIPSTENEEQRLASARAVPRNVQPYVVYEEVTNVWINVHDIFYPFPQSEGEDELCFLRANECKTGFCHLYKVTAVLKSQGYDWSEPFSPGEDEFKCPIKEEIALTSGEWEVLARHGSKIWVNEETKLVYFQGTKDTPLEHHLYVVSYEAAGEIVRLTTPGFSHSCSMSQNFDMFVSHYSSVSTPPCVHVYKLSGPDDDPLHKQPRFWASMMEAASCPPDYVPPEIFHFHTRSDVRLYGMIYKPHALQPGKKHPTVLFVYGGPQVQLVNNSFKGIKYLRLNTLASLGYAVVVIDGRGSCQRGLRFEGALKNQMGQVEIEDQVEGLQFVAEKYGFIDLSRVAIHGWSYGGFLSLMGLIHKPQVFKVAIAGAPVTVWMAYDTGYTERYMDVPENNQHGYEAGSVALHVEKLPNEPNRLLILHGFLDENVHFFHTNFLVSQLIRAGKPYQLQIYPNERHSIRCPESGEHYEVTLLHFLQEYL
The target in a further data set is Dipeptidyl peptidase 4 (Homo sapiens, UniProt P27487). The data set can be described thus: Inhibition of DPP4.
Chain of Dipeptidyl peptidase 4 (P27487 whole entry): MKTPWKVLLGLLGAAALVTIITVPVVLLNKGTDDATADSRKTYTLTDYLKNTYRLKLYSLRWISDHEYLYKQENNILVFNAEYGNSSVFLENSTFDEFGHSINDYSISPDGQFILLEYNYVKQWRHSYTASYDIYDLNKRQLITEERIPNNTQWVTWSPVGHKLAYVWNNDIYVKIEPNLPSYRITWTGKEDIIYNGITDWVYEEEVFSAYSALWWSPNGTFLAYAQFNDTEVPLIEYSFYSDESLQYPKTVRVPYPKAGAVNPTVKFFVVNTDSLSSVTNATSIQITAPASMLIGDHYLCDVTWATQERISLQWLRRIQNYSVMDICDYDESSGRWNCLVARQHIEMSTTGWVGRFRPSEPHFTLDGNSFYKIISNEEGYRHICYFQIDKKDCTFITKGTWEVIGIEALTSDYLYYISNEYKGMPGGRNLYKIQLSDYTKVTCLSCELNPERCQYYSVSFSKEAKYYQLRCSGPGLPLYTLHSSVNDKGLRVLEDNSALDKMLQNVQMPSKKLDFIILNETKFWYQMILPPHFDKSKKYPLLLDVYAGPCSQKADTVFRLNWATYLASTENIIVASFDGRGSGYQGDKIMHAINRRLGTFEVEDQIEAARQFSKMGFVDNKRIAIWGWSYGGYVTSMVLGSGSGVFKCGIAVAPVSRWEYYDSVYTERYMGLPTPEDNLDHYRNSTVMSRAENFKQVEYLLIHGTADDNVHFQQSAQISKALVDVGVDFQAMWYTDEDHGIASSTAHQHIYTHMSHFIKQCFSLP
The nature of data set [1]: Cmax in rat at 2 mg/kg, po. It is filed as ADME, organism-based. Set-up: dose 2 mg/kg, route oral. To be noted: in vivo.
The nature of data set [2]: Oral bioavailability in rat at 2 mg/kg, po. To be noted: in vivo. Type of data set: ADME, organism-based.
Data set [3] is described as follows: Plasma clearance in rat at 1 mg/kg, iv and 2 mg/kg, po. It is filed as ADME, organism-based.
Data set [4] can be described thus: Half life in rat at 1 mg/kg, iv and 2 mg/kg, po. Particulars: in vivo. Type of data set: ADME, organism-based.
Data set [5] is described as follows: Volume of distribution at steady state in rat at 1 mg/kg, iv and 2 mg/kg, po. Type of data set: ADME, organism-based. To be noted: in vivo, read-out: Vdss.
In a further data set the target is Dipeptidyl peptidase 8 (Homo sapiens, UniProt Q6V1X1). As to the kind of experiment: Inhibition of DPP8.
Chain of Dipeptidyl peptidase 8 (Q6V1X1 whole entry): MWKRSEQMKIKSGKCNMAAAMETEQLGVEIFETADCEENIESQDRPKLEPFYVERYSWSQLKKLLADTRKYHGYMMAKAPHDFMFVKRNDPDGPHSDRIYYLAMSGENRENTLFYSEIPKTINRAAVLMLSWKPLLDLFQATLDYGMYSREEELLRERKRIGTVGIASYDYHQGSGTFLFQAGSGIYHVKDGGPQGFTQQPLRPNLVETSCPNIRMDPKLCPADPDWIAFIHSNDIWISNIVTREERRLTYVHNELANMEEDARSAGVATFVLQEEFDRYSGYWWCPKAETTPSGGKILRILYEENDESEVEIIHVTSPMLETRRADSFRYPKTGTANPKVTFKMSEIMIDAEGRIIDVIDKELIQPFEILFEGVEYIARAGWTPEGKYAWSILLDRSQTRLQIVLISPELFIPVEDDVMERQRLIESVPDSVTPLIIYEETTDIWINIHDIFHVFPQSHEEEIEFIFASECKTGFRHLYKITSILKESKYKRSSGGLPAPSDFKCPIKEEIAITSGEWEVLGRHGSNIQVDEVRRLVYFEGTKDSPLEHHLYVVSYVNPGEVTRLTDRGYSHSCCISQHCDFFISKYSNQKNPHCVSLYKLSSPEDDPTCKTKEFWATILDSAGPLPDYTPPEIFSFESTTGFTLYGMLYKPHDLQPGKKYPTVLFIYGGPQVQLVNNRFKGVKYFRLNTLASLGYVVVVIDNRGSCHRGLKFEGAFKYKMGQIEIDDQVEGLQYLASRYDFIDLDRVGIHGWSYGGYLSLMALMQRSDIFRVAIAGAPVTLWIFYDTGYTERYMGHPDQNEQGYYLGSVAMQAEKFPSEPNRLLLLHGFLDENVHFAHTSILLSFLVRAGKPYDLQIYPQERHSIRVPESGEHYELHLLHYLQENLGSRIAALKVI

SMILES strings stand for the structures.

In the case of `CC1c2nc(C3CC3)n(C)c2CCN1C(=O)C[C@H](N)Cc1cc(F)c(F)cc1F` (stereo not given in full) [listing 1 of 2 here], it took 30 µM to reach half-maximal inhibition at Dipeptidyl peptidase 2 (IC50).

In the case of `N[C@@H](CC(=O)N1CCc2c(nc(C(F)(F)F)n2Cc2ccc(F)cc2)C1)Cc1cc(F)ccc1F`, the IC50 is 64 µM against Dipeptidyl peptidase 2, greater than 100 µM against Dipeptidyl peptidase 9 and 0.25 µM on Dipeptidyl peptidase 4.

For the compound `CC1c2nc(C(F)(F)F)n(C)c2CCN1C(=O)C[C@H](N)Cc1cc(F)c(F)cc1F` (stereo not given in full), the values for the IC50 on Dipeptidyl peptidase 2 and against Dipeptidyl peptidase 9 were 39 µM and greater than 100 µM, respectively. The compound further gave a Cmax in data set [1] of 98 nM. The compound also yielded a bioavailability in [2] of 40%. Also, the clearance in data set [3] came to 81 mL/min/kg. Also, the half-life in data set [4] was 1.2 h. The Vd in data set [5] stood at 8 L/kg.

Take `Cn1c(C(F)(F)F)nc2c1CCN(C(=O)C[C@H](N)Cc1cc(F)ccc1F)C2`: the IC50 against Dipeptidyl peptidase 2 was 92 µM; against Dipeptidyl peptidase 9 it was greater than 100 µM; at Dipeptidyl peptidase 4, 0.15 µM.

In the case of `CCn1c(C(F)(F)F)nc2c1CCN(C(=O)C[C@H](N)Cc1cc(F)ccc1F)C2`, the figures for the IC50 on Dipeptidyl peptidase 2, against Dipeptidyl peptidase 9 and at Dipeptidyl peptidase 4 were greater than 100 µM, greater than 100 µM and 0.18 µM, respectively.

`CC(C)Cn1c(C(F)(F)F)nc2c1CCN(C(=O)C[C@H](N)Cc1cc(F)ccc1F)C2`: the IC50 on Dipeptidyl peptidase 2 was 49 µM; against Dipeptidyl peptidase 9 it was greater than 100 µM; at Dipeptidyl peptidase 4 it was 0.22 µM.

For the compound `N[C@@H](CC(=O)N1CCc2nc(C(F)(F)F)n(Cc3ccc(F)cc3)c2C1)Cc1cc(F)ccc1F`, the IC50 was 56 µM on Dipeptidyl peptidase 2, greater than 100 µM at Dipeptidyl peptidase 8, greater than 100 µM against Dipeptidyl peptidase 9 and 0.25 µM on Dipeptidyl peptidase 4.

In turn, `CC1c2nc(C3CC3)n(C)c2CCN1C(=O)C[C@H](N)Cc1cc(F)c(F)cc1F` (stereo not given in full) [listing 2 of 2 here] had an IC50 against Dipeptidyl peptidase 2 of 90 µM.

Regarding `N[C@@H](CC(=O)N1CCc2[nH]c(C(F)(F)F)nc2C1)Cc1cc(F)ccc1F`, the results for the IC50 on Dipeptidyl peptidase 2 and against Dipeptidyl peptidase 4 were greater than 100 µM and 0.14 µM, respectively.

For `CC(C)Cn1c(C(F)(F)F)nc2c1CN(C(=O)C[C@H](N)Cc1cc(F)ccc1F)CC2`, the IC50 was 85 µM against Dipeptidyl peptidase 2, greater than 100 µM at Dipeptidyl peptidase 8, greater than 100 µM on Dipeptidyl peptidase 9 and 0.26 µM on Dipeptidyl peptidase 4.

In the case of `CC1c2nc(C(F)(F)F)n(C)c2CCN1C(=O)C[C@H](N)Cc1cc(F)ccc1F` (stereo in doubt; 63a), the IC50 against Dipeptidyl peptidase 2 was greater than 100 µM; at Dipeptidyl peptidase 9, greater than 100 µM; on Dipeptidyl peptidase 4, 0.19 µM.

As to `CC1c2nc(C(F)(F)F)n(C)c2CCN1C(=O)C[C@H](N)Cc1cc(F)ccc1F` (stereo in doubt; 63b), the values for the IC50 against Dipeptidyl peptidase 2, against Dipeptidyl peptidase 9 and on Dipeptidyl peptidase 4 were greater than 100 µM, greater than 100 µM and 0.065 µM, respectively.

`Cn1cnc2c1CCN(C(=O)C[C@H](N)Cc1cc(F)c(F)cc1F)C2C(F)(F)F` (stereo in doubt; 67a): the IC50 against Dipeptidyl peptidase 2 is 76 µM; against Dipeptidyl peptidase 9, greater than 100 µM; against Dipeptidyl peptidase 4 it was 0.38 µM.

`Cn1cnc2c1CCN(C(=O)C[C@H](N)Cc1cc(F)c(F)cc1F)C2C(F)(F)F` (stereo in doubt; 67b): the IC50 was 38 µM on Dipeptidyl peptidase 2, greater than 100 µM against Dipeptidyl peptidase 9 and 0.05 µM against Dipeptidyl peptidase 4. The same compound had a Cmax in data set [1] of 50 nM. The compound also displayed a bioavailability in data set [2] of 16%. In [3], this compound yielded a clearance of 93 mL/min/kg. The half-life in data set [4] is 1.4 h. Moreover, the Vd in data set [5] is 8.3 L/kg.

Take `Cn1c(C(F)(F)F)nc2c1CCN(C(=O)C[C@H](N)Cc1cc(F)c(F)cc1F)C2C1CC1` (stereo in doubt; 68a): the IC50 on Dipeptidyl peptidase 2 is greater than 100 µM; against Dipeptidyl peptidase 9, greater than 100 µM; against Dipeptidyl peptidase 4, 0.34 µM.

For `Cn1c(C(F)(F)F)nc2c1CCN(C(=O)C[C@H](N)Cc1cc(F)c(F)cc1F)C2C1CC1` (stereo in doubt; 68b), the results for the IC50 at Dipeptidyl peptidase 2, at Dipeptidyl peptidase 9 and on Dipeptidyl peptidase 4 were 37 µM, greater than 100 µM and 0.11 µM, respectively.

For the compound `CC1c2nc(C(C)(C)C)n(C)c2CCN1C(=O)C[C@H](N)Cc1cc(F)c(F)cc1F` (stereo in doubt; 70a), the IC50 on Dipeptidyl peptidase 2 amounted to 37 µM; against Dipeptidyl peptidase 4 it was 0.63 µM.

As for `CC1c2nc(C(C)(C)C)n(C)c2CCN1C(=O)C[C@H](N)Cc1cc(F)c(F)cc1F` (stereo in doubt; 70b), the values for the IC50 against Dipeptidyl peptidase 2 and against Dipeptidyl peptidase 4 were 19 µM and 0.37 µM, respectively.

As to `Cn1c(C(F)(F)F)nc2c1CCN(C(=O)C[C@H](N)Cc1cc(F)c(F)cc1F)C2Cc1ccccc1` (stereo in doubt; 71a), the concentration for half-maximal inhibition (IC50) on Dipeptidyl peptidase 2 is 46 µM; against Dipeptidyl peptidase 9, greater than 100 µM; at Dipeptidyl peptidase 4, 0.57 µM.

For the compound `Cn1c(C(F)(F)F)nc2c1CCN(C(=O)C[C@H](N)Cc1cc(F)c(F)cc1F)C2Cc1ccccc1` (stereo in doubt; 71b), the values for the IC50 against Dipeptidyl peptidase 2, at Dipeptidyl peptidase 9 and against Dipeptidyl peptidase 4 were 20 µM, greater than 100 µM and 0.0084 µM, respectively. Further, in data set [1], the peak level (Cmax) was 72 nM. Besides, the bioavailability in [2] is 16%. The compound further had a clearance in [3] of 64 mL/min/kg. In addition, the half-life in data set [4] is 1.5 h. For the same compound, the Vd in data set [5] came out at 6.5 L/kg.

Consider `Cn1c(C(F)(F)F)nc2c1CCN(C(=O)C[C@H](N)Cc1cc(F)c(F)cc1F)C2Cc1ccc(F)cc1` (stereo in doubt; 72a), for which the IC50 against Dipeptidyl peptidase 2 is 39 µM; at Dipeptidyl peptidase 9, greater than 100 µM; at Dipeptidyl peptidase 4, 0.78 µM.

Turning to `Cn1c(C(F)(F)F)nc2c1CCN(C(=O)C[C@H](N)Cc1cc(F)c(F)cc1F)C2Cc1ccc(F)cc1` (stereo in doubt; 72b), the IC50 against Dipeptidyl peptidase 2 is 15 µM; on Dipeptidyl peptidase 9 it was greater than 100 µM; against Dipeptidyl peptidase 4 it was 0.0058 µM.
